According to patent publication US11919901B2 (Syndax Pharmaceuticals, Inc., priority 2021, dated 2024):

The compounds below were run on MV4-11 cells (assay: Cell proliferation assay MV4;11 (CellTiter-Glo, 72 hours)). Details: Homo sapiens; MV4;11 leukemia cell line, 72 hours; read-out: MV4; 11 IC50.
Format: cell-based
Outline: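 Luminescent CellTiter-Glo readout after 72 h culture, 37 °C, 5% CO2, expressed relative to vehicle-treated wells, with maximal inhibition taken at the highest dose. MLL-rearranged MV4-11 leukemia cells; final compound range 0.632 to 2000 nM in eight steps.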

| SMILES | IC50 |
| --- | --- |
| CCS(=O)(=O)N[C@@H]1CC[C@@H](CN2CCC3(CC2)CN(c2ncncc2Oc2ccc(F)cc2C(=O)N(CCC#N)C(C)C)C3)OC1 [Example 43, N-(2-Cyanoethyl)-2-((4-(7-(((2S,5R)-5-(ethylsulfonamido)tetrahydro-2H-pyran-2-yl)methyl)-2,7-diazaspiro[3.5]nonan-2-yl)pyrimidin-5-yl)oxy)-5-fluoro-N-isopropylbenzamide] | 100 to 1000 nM |
| CCS(=O)(=O)N[C@@H]1CC[C@@H](CN2CCC3(CC2)CN(c2ncncc2Oc2ccc(F)cc2C(=O)N(C(C)C)C2CC(F)(F)C2)C3)OC1 [Example 44, N-(3,3-Difluorocyclobutyl)-2-((4-(7-(((2S,5R)-5-(ethylsulfonamido)tetrahydro-2H-pyran-2-yl)methyl)-2,7-diazaspiro[3.5]nonan-2-yl)pyrimidin-5-yl)oxy)-5-fluoro-N-isopropylbenzamide] | < 100 nM |
| CCN(C(=O)c1cc(F)ccc1Oc1cncnc1N1CC2(CCN(C[C@@H]3CC[C@@H](NS(=O)(=O)c4ccccc4)CO3)CC2)C1)C(C)C [Example 45, N-Ethyl-5-fluoro-N-isopropyl-2-((4-(7-(((2S,5R)-5-(phenylsulfonamido)tetrahydro-2H-pyran-2-yl)methyl)-2,7-diazaspiro[3.5]nonan-2-yl)pyrimidin-5-yl)oxy)benzamide] | < 100 nM |
| CCS(=O)(=O)N[C@@H]1CC[C@@H](CN2CCC3(CC2)CN(c2ncncc2Oc2ccc(F)cc2C(=O)N(C(C)C)[C@@H]2CCOC2)C3)OC1 [Example 46, 2-((4-(7-(((2S,5R)-5-(Ethylsulfonamido)tetrahydro-2H-pyran-2-yl)methyl)-2,7-diazaspiro[3.5]nonan-2-yl)pyrimidin-5-yl)oxy)-5-fluoro-N-isopropyl-N-((R)-tetrahydrofuran-3-yl)benzamide] | < 100 nM |
| CC(C)N(CC(F)F)C(=O)c1cc(F)ccc1Oc1cncnc1N1CC2(CCN(C[C@@H]3CC[C@@H](NS(=O)(=O)C4CC4)CO3)CC2)C1 [Example 47, 2-((4-(7-(((2S,5R)-5-(Cyclopropanesulfonamido)tetrahydro-2H-pyran-2-yl)methyl)-2,7-diazaspiro[3.5]nonan-2-yl)pyrimidin-5-yl)oxy)-N-(2,2-difluoroethyl)-5-fluoro-N-isopropylbenzamide] | < 100 nM |
| CCS(=O)(=O)N[C@@H]1CC[C@@H](CN2CCC3(CC2)CN(c2ncncc2Oc2ccc(F)cc2C(=O)N(C(C)C)C2COC2)C3)OC1 [Example 48, 2-((4-(7-(((2S,5R)-5-(Ethylsulfonamido)tetrahydro-2H-pyran-2-yl)methyl)-2,7-diazaspiro[3.5]nonan-2-yl)pyrimidin-5-yl)oxy)-5-fluoro-N-isopropyl-N-(oxetan-3-yl)benzamide] | < 100 nM |
| CCN(C(=O)c1cc(F)ccc1Oc1cncnc1N1CC2(CCN(C[C@@H]3CC[C@@H](NS(=O)(=O)N(C)C)CO3)CC2)C1)C(C)C [Example 49, 2-((4-(7-(((2S,5R)-5-((N,N-Dimethylsulfamoyl)amino)tetrahydro-2H-pyran-2-yl)methyl)-2,7-diazaspiro[3.5]nonan-2-yl)pyrimidin-5-yl)oxy)-N-ethyl-5-fluoro-N-isopropylbenzamide] | < 100 nM |
| COCCN(C(=O)c1cc(F)ccc1Oc1cncnc1N1CC2(CCN(C[C@@H]3CC[C@@H](NS(=O)(=O)C4CC4)CO3)CC2)C1)C(C)C [Example 51, 2-((4-(7-(((2S,5R)-5-(Cyclopropanesulfonamido)tetrahydro-2H-pyran-2-yl)methyl)-2,7-diazaspiro[3.5]nonan-2-yl)pyrimidin-5-yl)oxy)-5-fluoro-N-isopropyl-N-(2-methoxyethyl)benzamide] | < 100 nM |
| CCN(C(=O)c1cc(F)ccc1Oc1cncnc1N1CC2(CCN(C[C@@H]3CC[C@@H](NS(=O)(=O)c4ccc(C)cc4)CO3)CC2)C1)C(C)C [Example 55, N-Ethyl-5-fluoro-N-isopropyl-2-((4-(7-(((2S,5R)-5-((4-methylphenyl)sulfonamido)tetrahydro-2H-pyran-2-yl)methyl)-2,7-diazaspiro[3.5]nonan-2-yl)pyrimidin-5-yl)oxy)benzamide] | < 100 nM |
| CCN(C(=O)c1cc(F)ccc1Oc1cncnc1N1CC2(CCN(C[C@@H]3CC[C@@H](NS(=O)(=O)c4ccccc4C)CO3)CC2)C1)C(C)C [Example 56, N-Ethyl-5-fluoro-N-isopropyl-2-((4-(7-(((2S,5R)-5-((2-methylphenyl)sulfonamido)tetrahydro-2H-pyran-2-yl)methyl)-2,7-diazaspiro[3.5]nonan-2-yl)pyrimidin-5-yl)oxy)benzamide] | < 100 nM |
| CCN(C(=O)c1cc(F)ccc1Oc1cncnc1N1CC2(CCN(C[C@@H]3CC[C@@H](NS(=O)(=O)c4cccc(Cl)c4)CO3)CC2)C1)C(C)C [Example 57, 2-((4-(7-(((2S,5R)-5-((3-Chlorophenyl)sulfonamido)tetrahydro-2H-pyran-2-yl)methyl)-2,7-diazaspiro[3.5]nonan-2-yl)pyrimidin-5-yl)oxy)-N-ethyl-5-fluoro-N-isopropylbenzamide] | < 100 nM |
| CCN(C(=O)c1cc(F)ccc1Oc1cncnc1N1CC2(CCN(C[C@@H]3CC[C@@H](NS(=O)(=O)c4ccccn4)CO3)CC2)C1)C(C)C [Example 58, N-ethyl-5-fluoro-N-isopropyl-2-((4-(7-(((2S,5R)-5-(pyridine-2-sulfonamido)tetrahydro-2H-pyran-2-yl)methyl)-2,7-diazaspiro[3.5]nonan-2-yl)pyrimidin-5-yl)oxy)benzamide] | < 100 nM |
| CCN(C(=O)c1cc(F)ccc1Oc1cncnc1N1CC2(CCN(C[C@@H]3CC[C@@H](NS(=O)(=O)c4ccccc4Cl)CO3)CC2)C1)C(C)C [Example 59, 2-((4-(7-(((2S,5R)-5-((2-Chlorophenyl)sulfonamido)tetrahydro-2H-pyran-2-yl)methyl)-2,7-diazaspiro[3.5]nonan-2-yl)pyrimidin-5-yl)oxy)-N-ethyl-5-fluoro-N-isopropylbenzamide] | < 100 nM |
| CCN(C(=O)c1cc(F)ccc1Oc1cncnc1N1CC2(CCN(C[C@@H]3CC[C@@H](NS(=O)(=O)c4cccc(C)c4)CO3)CC2)C1)C(C)C [Example 60, N-ethyl-5-fluoro-N-isopropyl-2-((4-(7-(((2S,5R)-5-((3-methylphenyl)sulfonamido)tetrahydro-2H-pyran-2-yl)methyl)-2,7-diazaspiro[3.5]nonan-2-yl)pyrimidin-5-yl)oxy)benzamide] | < 100 nM |
| CCN(C(=O)c1cc(F)ccc1Oc1cncnc1N1CC2(CCN(C[C@@H]3CC[C@@H](NS(=O)(=O)c4ccc(Cl)cc4)CO3)CC2)C1)C(C)C [Example 61, 2-((4-(7-(((2S,5R)-5-((4-Chlorophenyl)sulfonamido)tetrahydro-2H-pyran-2-yl)methyl)-2,7-diazaspiro[3.5]nonan-2-yl)pyrimidin-5-yl)oxy)-N-ethyl-5-fluoro-N-isopropylbenzamide] | < 100 nM |
| CCN(C(=O)c1cc(F)ccc1Oc1cncnc1N1CC2(CCN(C[C@@H]3CC[C@@H](NS(=O)(=O)c4ccc(OC)cc4)CO3)CC2)C1)C(C)C [Example 62, N-Ethyl-5-fluoro-N-isopropyl-2-((4-(7-(((2S,5R)-5-((4-methoxyphenyl)sulfonamido)tetrahydro-2H-pyran-2-yl)methyl)-2,7-diazaspiro[3.5]nonan-2-yl)pyrimidin-5-yl)oxy)benzamide] | < 100 nM |
| CCN(C(=O)c1cc(F)ccc1Oc1cncnc1N1CC2(CCN(C[C@@H]3CC[C@@H](NS(=O)(=O)c4cccnc4)CO3)CC2)C1)C(C)C [Example 63, N-Ethyl-5-fluoro-N-isopropyl-2-((4-(7-(((2S,5R)-5-(pyridine-3-sulfonamido)tetrahydro-2H-pyran-2-yl)methyl)-2,7-diazaspiro[3.5]nonan-2-yl)pyrimidin-5-yl)oxy)benzamide] | < 100 nM |
| CCN(C(=O)c1cc(F)ccc1Oc1cncnc1N1CC2(CCN(C[C@@H]3CC[C@@H](NS(=O)(=O)N4CCOCC4)CO3)CC2)C1)C(C)C [Example 64, N-Ethyl-5-fluoro-N-isopropyl-2-((4-(7-(((2S,5R)-5-(morpholine-4-sulfonamido)tetrahydro-2H-pyran-2-yl)methyl)-2,7-diazaspiro[3.5]nonan-2-yl)pyrimidin-5-yl)oxy)benzamide] | < 100 nM |
| CCN(C(=O)c1cc(F)ccc1Oc1cncnc1N1CC2(CCN(C[C@@H]3CC[C@@H](NS(=O)(=O)c4ccccc4OC)CO3)CC2)C1)C(C)C [Example 65, N-Ethyl-5-fluoro-N-isopropyl-2-((4-(7-(((2S,5R)-5-((2-methoxyphenyl)sulfonamido)tetrahydro-2H-pyran-2-yl)methyl)-2,7-diazaspiro[3.5]nonan-2-yl)pyrimidin-5-yl)oxy)benzamide] | < 100 nM |
| CCN(C(=O)c1cc(F)ccc1Oc1cncnc1N1CC2(CCN(C[C@@H]3CC[C@@H](NS(=O)(=O)c4cccc(OC)c4)CO3)CC2)C1)C(C)C [Example 66, N-Ethyl-5-fluoro-N-isopropyl-2-((4-(7-(((2S,5R)-5-((3-methoxyphenyl)sulfonamido)tetrahydro-2H-pyran-2-yl)methyl)-2,7-diazaspiro[3.5]nonan-2-yl)pyrimidin-5-yl)oxy)benzamide] | < 100 nM |
| CCN(C(=O)c1cc(F)ccc1Oc1cncnc1N1CC2(CCN(C[C@@H]3CC[C@@H](NS(=O)(=O)N4CCC4)CO3)CC2)C1)C(C)C [Example 69, 2-((4-(7-(((2S,5R)-5-(Azetidine-1-sulfonamido)tetrahydro-2H-pyran-2-yl)methyl)-2,7-diazaspiro[3.5]nonan-2-yl)pyrimidin-5-yl)oxy)-N-ethyl-5-fluoro-N-isopropylbenzamide] | < 100 nM |
| CCN(C(=O)c1cc(F)ccc1Oc1cncnc1N1CC2(CCN(C[C@@H]3CC[C@@H](NS(N)(=O)=O)CO3)CC2)C1)C(C)C [Example 73, N-Ethyl-5-fluoro-N-isopropyl-2-((4-(7-(((2S,5R)-5-(sulfamoylamino)tetrahydro-2H-pyran-2-yl)methyl)-2,7-diazaspiro[3.5]nonan-2-yl)pyrimidin-5-yl)oxy)benzamide] | 100 to 1000 nM |
